Laboratory results taken from patent publication US20100284985A1, “Composition” (Danisco A/S, priority 2007, published 2010).

Experiments:
[1] = tested on: Lactobacilllus farciminis DCS 611; assay: MIC assay, LAE; assay type: cell-based; conditions: ppm of the active component
Description: (§1) The Minimal Inhibition Concentration Assay (MIC) is a 96 well liquid based assay developed for a semi-automated assessment system and performed essentially as described in (7). […] From an overnight culture […] of each strain was inoculated in one well corresponding to an approximate inoculation density of 10^3-10^4 cells/well. Media used were CASO, MRS and YM (Appendix 1). Strains were incubated at 20° C., 25° C., 37° C. and under aerobic/anaerobic conditions depending on the preferred conditions for the particular strain (Appendix 1). At time zero, after adding the AM, the optical density (O.D.) of the bacterial culture is measured at 620 nm and then again after 24 hours. […] MIC is defined as the lowest concentration of the AM that will inhibit measurable growth. A bacteriostatic effect is defined as the OD620 at 24 h being less than or equal to 20% of the growth control.

[2] = tested on: Lactobacillus fermentum DCS 573; assay: MIC assay, LAE; assay type: cell-based
Description: as §1

[3] = tested on: Leuconostoc mesenteroides ss DCS 512; assay: MIC assay, LAE; assay type: cell-based
Description: as §1

Leuconostoc spp. DCS 947 = assay: MIC assay, LAE; assay type: cell-based; conditions: ppm of the active component
Description: as §1

Listeria innocua DCS 17 = assay: MIC assay, LAE; assay type: cell-based
Description: as §1

[4] = tested on: Listeria monocytogenes DCS 489; assay: MIC assay, LAE; assay type: cell-based
Description: as §1

[5] = tested on: Listeria monocytogenes DCS 490; assay: MIC assay, LAE; assay type: cell-based
Description: as §1

Pichia anomala DCS 603 = assay: MIC assay, LAE; assay type: cell-based
Description: as §1

[6] = tested on: Rhodotorula mucilaginosa H116; assay: MIC assay, LAE; assay type: cell-based; conditions: ppm of the active component
Description: as §1

[7] = tested on: Saccharomyces cerevisiae DCS 599; assay: MIC assay, LAE; assay type: cell-based
Description: as §1

[8] = tested on: Salmonella typhimurium DCS 218; assay: MIC assay, LAE; assay type: cell-based; conditions: ppm of the active component
Description: as §1

[9] = tested on: Salmonella typhimurium DCS 223; assay: MIC assay, LAE; assay type: cell-based; conditions: ppm of the active component
Description: as §1

[10] = tested on: Staphylococcus aureus DCS 630; assay: MIC assay, LAE; assay type: cell-based
Description: as §1

[11] = tested on: Zygosaccharomyces bailii DCS 538; assay: MIC assay, LAE; assay type: cell-based
Description: as §1

[12] = tested on: Lactobacilllus curvatus DCS 609; assay: MIC assay, LAE; assay type: cell-based, Lactobacillus curvatus; conditions: Latilactobacillus curvatus, DCS609, ppm of the active component
Description: as §1

[13] = tested on: Lactobacilllus sakei DCS 608; assay: MIC assay, LAE; assay type: cell-based, Lactobacillus sakei; conditions: Latilactobacillus sakei, DCS608, ppm of the active component
Description: as §1

[14] = tested on: Bacillus licheniformis DCS 561; assay: FIC checkerboard assay, LAE with Nisaplin; assay type: cell-based
Description: (§2) The Fractional Inhibition Concentration (FIC) assay is also a 96 well liquid based assay with a checkerboard titration layout (7, 8), one plate for each strain and sets of concentrations. Cultivation media can be seen in Appendix 1. O.D. at 620 nm is read at zero hours (at strain addition) and after a 24-hour incubation period. […] The FICs for the two substances are plotted towards each other in a graph called an isobologram. […] Additionally, the FIC index is then calculated as follows: FICindex=FICA+FICB, if FICindex is lower than 1 there is synergy, if it is higher than one there is antagony and if it is equal to one there is an additive effect.
(§3) FICs were determined for LAE in combination with Nisaplin and Natamax for strains in Table 1A and B.

[15] = tested on: Brochothrix thermosphacta DCS 780; assay: FIC checkerboard assay, LAE with Nisaplin; assay type: cell-based
Description: as §2, §3

[16] = tested on: Listeria monocytogenes DCS 489; assay: FIC checkerboard assay, LAE with Nisaplin; assay type: cell-based
Description: as §2, §3

[17] = Leuconostoc mesenteroides, SSDCS512, ppm of the active component
[18] = Listeria innocua, DCS17, ppm of the active component
[19] = Listeria monocytogenes, DCS489, ppm of the active component
[20] = Listeria monocytogenes, DCS490, ppm of the active component
[21] = Hansenula anomala, DCS603, ppm of the active component
[22] = Saccharomyces cerevisiae, DCS599, ppm of the active component
[23] = Salmonella enterica, TYPHIMURIUM
[24] = Staphylococcus aureus, DCS630, ppm of the active component
[25] = Zygosaccharomyces bailii, DCS538, ppm of the active component

CCCCCCCCCCCC(=O)N[C@@H](CCCNC(=N)N)C(=O)OCC.Cl [LAE, N^α-Lauroyl-L-arginine ethyl ester monohydrochloride]
MIC [1]: 49.2 µg/mL
increased lag phase [1]: 49.2 ppm
MBC ([2]; DCS573, ppm of the active component): > 166 µg/mL
MIC ([2]; Limosilactobacillus reuteri, DCS573, ppm of the active component): 73.8 µg/mL
increased lag phase ([2]; ppm of the active component): 73.8 ppm
MBC [3, 17]: > 166 µg/mL
MIC [3, 17]: 41 µg/mL
increased lag phase ([3]; ppm of the active component): 32.8 ppm
MBC (Leuconostoc spp. DCS 947; Leuconostoc): > 166 µg/mL
MIC (Leuconostoc spp. DCS 947; Leuconostoc): 32.8 µg/mL
increased lag phase (Leuconostoc spp. DCS 947): 32.8 ppm
MBC (Listeria innocua DCS 17; [18]): 21.9 µg/mL
MIC (Listeria innocua DCS 17; [18]): 12.1 µg/mL
increased lag phase (Listeria innocua DCS 17; ppm of the active component): 5.4 ppm
MBC [4, 19]: 14.6 µg/mL
MIC [4, 19]: 12.1 µg/mL
increased lag phase ([4]; ppm of the active component): 9.7 ppm
MBC [5, 20]: 12.2 µg/mL
MIC [5, 20]: 12.1 µg/mL
increased lag phase ([5]; ppm of the active component): 8.1 ppm
MBC (Pichia anomala DCS 603; [21]): 111 µg/mL
MIC (Pichia anomala DCS 603; [21]): 73.8 µg/mL
increased lag phase (Pichia anomala DCS 603; ppm of the active component): 32.8 ppm
MBC ([6]; Rhodotorula mucilaginosa): 6.5 µg/mL
MIC ([6]; Rhodotorula mucilaginosa): 6.5 µg/mL
increased lag phase [6]: 4.3 ppm
MBC [7, 22]: 14.6 µg/mL
MIC [7, 22]: 14.6 µg/mL
increased lag phase ([7]; ppm of the active component): 14.6 ppm
MBC [8, 23]: 49.2 µg/mL
MIC [8, 23]: 32.8 µg/mL
increased lag phase [8]: 12.1 ppm
MBC [9, 23]: 32.8 µg/mL
MIC [9, 23]: 21.9 µg/mL
increased lag phase [9]: 14.6 ppm
MBC [10, 24]: 18.3 µg/mL
MIC [10, 24]: 14.6 µg/mL
increased lag phase ([10]; ppm of the active component): 14.6 ppm
MBC [11, 25]: 6.5 µg/mL
MIC [11, 25]: 6.5 µg/mL
increased lag phase ([11]; ppm of the active component): 4.3 ppm
MBC [12]: > 166 µg/mL
MIC [12]: 32.8 µg/mL
MBC [13]: > 166 µg/mL
MIC [13]: 32.8 µg/mL
FICLAE ([14]; Nisaplin 50 ppm + LAE 22.2 ppm): 0.44
FICLAE ([14]; Nisaplin 130 ppm + LAE 14.8 ppm): 0.30
FICLAE ([14]; Nisaplin 210 ppm + LAE 9.9 ppm): 0.20
FICLAE ([14]; Nisaplin 250 ppm + LAE 0 ppm): 0.00
FICLAE ([15]; Nisaplin 50 ppm + LAE 33 ppm): 0.67
FICLAE ([15]; Nisaplin 90 ppm + LAE 22 ppm): 0.44
FICLAE ([15]; Nisaplin 210 ppm + LAE 0 ppm): 0.00
FICLAE ([16]; Nisaplin 0 ppm + LAE 50 ppm): 1.00
FICLAE ([16]; Nisaplin 50 ppm + LAE 22 ppm): 0.44
FICLAE ([16]; Nisaplin 90 ppm + LAE 15 ppm): 0.30
FICLAE ([16]; Nisaplin 130 ppm + LAE 5 ppm): 0.09
FICLAE ([16]; Nisaplin 170 ppm + LAE 4 ppm): 0.04
FICLAE ([16]; Nisaplin 210 ppm + LAE 1 ppm): 0.02
FICLAE ([16]; Nisaplin 250 ppm + LAE 0 ppm): 0.00
